Literature values as cited in patent publication US20210244731A1, “TABLET CONTAINING ANTITUMOR AGENT” (FUJIFILM Corporation, priority 2018, published 2021).

Target: T1, FLT3 (Homo sapiens, UniProt P36888)
T1 sequence (P36888 27-993): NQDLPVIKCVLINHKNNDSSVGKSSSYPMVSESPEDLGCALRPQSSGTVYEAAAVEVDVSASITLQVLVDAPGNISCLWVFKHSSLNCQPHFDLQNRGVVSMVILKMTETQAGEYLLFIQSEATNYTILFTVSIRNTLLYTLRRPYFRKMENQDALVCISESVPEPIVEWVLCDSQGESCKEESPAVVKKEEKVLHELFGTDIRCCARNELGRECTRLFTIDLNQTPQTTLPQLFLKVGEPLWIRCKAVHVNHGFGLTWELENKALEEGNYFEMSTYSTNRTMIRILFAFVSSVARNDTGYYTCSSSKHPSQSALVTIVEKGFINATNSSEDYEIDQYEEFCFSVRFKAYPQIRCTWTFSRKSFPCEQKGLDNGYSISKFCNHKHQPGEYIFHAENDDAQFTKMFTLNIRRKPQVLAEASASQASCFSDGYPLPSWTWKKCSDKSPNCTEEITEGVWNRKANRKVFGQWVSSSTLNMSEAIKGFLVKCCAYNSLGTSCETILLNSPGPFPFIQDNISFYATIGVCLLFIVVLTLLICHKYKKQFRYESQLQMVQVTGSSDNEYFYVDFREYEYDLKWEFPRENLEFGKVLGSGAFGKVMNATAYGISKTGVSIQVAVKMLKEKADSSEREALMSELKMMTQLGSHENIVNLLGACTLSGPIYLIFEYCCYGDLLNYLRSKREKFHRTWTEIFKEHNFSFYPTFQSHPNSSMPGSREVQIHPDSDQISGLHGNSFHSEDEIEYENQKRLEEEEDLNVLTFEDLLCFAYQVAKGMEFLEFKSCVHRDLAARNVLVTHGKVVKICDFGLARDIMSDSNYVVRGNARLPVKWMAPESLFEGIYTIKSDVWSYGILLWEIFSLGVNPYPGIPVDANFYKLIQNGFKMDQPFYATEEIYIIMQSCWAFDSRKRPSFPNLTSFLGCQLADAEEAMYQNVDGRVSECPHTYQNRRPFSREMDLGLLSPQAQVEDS
Details: statement of background, WO2015/056683A

Q: With CCCNc1nc(Nc2ccc(C#N)cc2)ncc1C#CCCCNC(=O)[C@H](C)N(C)C(=O)/C=C/CN(C)C [Compound A, (S,E)-N-(1-((5-(2-((4-cyanophenyl)amino)-4-(propylamino)pyrimidin-5-yl)-4-pentyn-1-yl)amino)-1-oxopropan-2-yl)-4-(dimethylamino)-N-methyl-2-butenamide] as the molecule, how does the FLT3 inhibitory action read?
A: Its FLT3 inhibitory action is “FLT3 inhibitory action”.
